The values that follow come from BindingDB's records for PubMed 34792334 (n/a, 2021).

For assay [1], the target named is T1, Alpha-ketoglutarate-dependent dioxygenase FTO (Homo sapiens, UniProt Q9C0B1). In words: Inhibition of FTO (unknown origin) demethylation activity using m6A7-Broccoli RNA as substrate incubated for 3 mins under shaking condition and measured after 2 hrs by fluorescence based analysis.
In assay [2] the target is T1, Alpha-ketoglutarate-dependent dioxygenase FTO. In words: Inhibition of FTO (unknown origin) demethylation activity.

T1 sequence (Q9C0B1 whole entry): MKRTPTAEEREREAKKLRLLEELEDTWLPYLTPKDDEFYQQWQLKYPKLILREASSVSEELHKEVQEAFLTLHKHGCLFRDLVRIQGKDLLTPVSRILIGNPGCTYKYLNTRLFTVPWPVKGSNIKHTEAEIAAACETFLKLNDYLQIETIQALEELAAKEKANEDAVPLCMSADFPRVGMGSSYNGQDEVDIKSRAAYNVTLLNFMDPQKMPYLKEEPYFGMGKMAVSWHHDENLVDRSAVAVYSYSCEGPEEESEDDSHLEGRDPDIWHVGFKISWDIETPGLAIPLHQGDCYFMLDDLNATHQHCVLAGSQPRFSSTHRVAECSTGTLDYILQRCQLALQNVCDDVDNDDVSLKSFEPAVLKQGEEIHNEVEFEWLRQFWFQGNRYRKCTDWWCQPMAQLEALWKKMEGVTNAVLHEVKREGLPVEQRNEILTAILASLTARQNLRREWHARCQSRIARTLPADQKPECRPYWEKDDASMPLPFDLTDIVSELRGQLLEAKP

In assay [1], `Nc1sc(-c2cncnc2)c2c1C(=O)c1ccccc1-2` registered an IC50 of 1200 nM.
On to `CCOc1nc2ccccc2nc1C(=O)Nc1ccc(N(CC)CC)cc1`, for which, in assay [2], half-maximal inhibition (IC50) was put at 1200 nM.
